One experiment deals with RsgA (Staphylococcus aureus, UniProt P67682). Briefly: DRaCALA binding of 32P-labeled nucleotides to 6×His-tagged RsgA. The settings on record: for Bmax, RsgA: Bmax values indicate the fraction bound. The procedure:
(§1) The RA-GTPases RsgA, Era, RbgA, and HflX can bind to the guanosine nucleotides GTP, GDP, ppGpp, and pppGpp. Our previous work observed higher binding affinities for ppGpp over GTP, pointing toward a difference in binding between 5′ di- or triphosphate nucleotides ([27]). […] Furthermore, these previous experiments were performed using recombinant proteins fused to large MBP tags, which could impact binding affinity determination. To examine the nucleotide binding affinities of these RA-GTPases for GDP in comparison to ppGpp, pppGpp, and GTP, and in the absence of a large tag, we used a differential radial capillary action of ligand assay (DRaCALA) with recombinant RsgA, RbgA, Era, and HflX fused to a smaller 6× His tag (Fig. 1B; see also Fig. S2A to C in the supplemental material) ([36]). In each case, the affinities of 5′ diphosphate-containing GDP and ppGpp were similar in the low μM range and were 2- to 6-fold higher than the affinities of either GTP or pppGpp (Table 1).
(§2) Supplementary file : FIG S2 Examination of the binding of GDP, ppGpp, GTP, and pppGpp to RA-GTPases by DRaCALA. (A to C) Determination of binding affinities and Kd values for ^32P-labeled nucleotides to purified recombinant 6×His-tagged RsgA (A), Era (B), and HflX (C). Kd values were determined from the binding curves as previously described ([36]). (D to F) DRaCALA binding assay of recombinant RsgA (D), Era (E), and HflX (F) binding to ^32P-labeled GTP, ppGpp, and pppGpp in the presence or absence of 100 μM cold competitors (GTP, GDP, ppGpp, pppGpp, and ATP). All experiments were carried out in triplicate, with error bars representing standard deviations. Download FIG S2, TIF file, 0.9 MB.
(§3) The synthesis of (p)ppGpp and differential radial capillary action of ligand assay (DRaCALA) binding and competition assays were performed as described previously ([27]), using recombinant, 6×His-tagged protein at the concentrations specified in the figure legends.

Experiment [1] has as its system HflX association to the 30S and 50S ribosomal subunits. Briefly: In vitro ribosome association assay (sucrose gradient, α-His Western immunoblot), HflX. The settings on record: 40 μM nucleotide; compared to apo, GTP, or GMPPNP-bound states. It counts as binding, Staphylococcus aureus. An excerpt:
It is well characterized that rRNA transcription decreases during the stringent response ([39]). In addition, the GTPase activity of ribosome assembly cofactors is inhibited by (p)ppGpp, both of which contribute to a reduction in mature ribosomes within the cell ([27]). To examine mechanistically how (p)ppGpp-GTPase interactions affect the ability of RA-GTPases to associate with ribosomal subunits, we examined the association of each GTPase to either the 30S or 50S ribosomal subunit in the presence of GDP, GTP, ppGpp, and pppGpp, as well as GMPPNP, a nonhydrolyzable analogue of GTP. The production and isolation of immature subunits, which can comprise several different immature states, introduces a large degree of heterogeneity, and so here we, and others, use homogenous mature particles as a system to examine the binding event, rather than the role of GTPase activity in downstream maturation ([11], [12], [29], [40], [41]). His-tagged GTPases were preincubated with highly pure, salt-washed 70S S. aureus ribosomes in a low-magnesium buffer to encourage ribosomal subunit dissociation, and the amount of each GTPase associated with each of the subunits was quantified by Western immunoblotting with anti-His antibodies after sucrose gradient separation. […]
FIG 2 (p)ppGpp and GDP binding reduces RA-GTPase association to the ribosome. […] After subunit separation and precipitation, bound proteins were detected in the 30S fraction using HRP-conjugated α-His antibodies. […] Bound proteins were detected in the 50S fraction using HRP-conjugated α-His antibodies. […]
A 500 nM concentration of recombinant 6×His-tagged RA-GTPase was incubated at room temperature for 5 min with 200 nM S. aureus 70S ribosomes in dissociation buffer (20 mM Tris [pH 7.5], 120 mM NH4Cl, 1.5 mM MgCl2, 2 mM β-mercaptoethanol) in the apo form and in the presence of 40 μM GTP, GMPPNP, GDP, ppGpp, or pppGpp. […] Gradients were fractionated by upward displacement of 250-μl aliquots, which were analyzed for RNA content at an absorbance of 260 nm. […]
For orientation: In western blotting, separated proteins are transferred to a membrane and probed.

Another experiment addresses HflX (Staphylococcus aureus, UniProt Q2FYY9). The experiment in a line: DRaCALA binding of 32P-labeled nucleotides to 6×His-tagged HflX. The settings on record: mean ± SEM; for Bmax, HflX: Bmax values indicate the fraction bound. The procedure:
as §1, §2, §3

A further experiment concerns the target Era (Staphylococcus aureus, UniProt Q2FGF6). Briefly: DRaCALA binding of 32P-labeled nucleotides to 6×His-tagged Era. The settings on record: for Bmax, Era: Bmax values indicate the fraction bound. The procedure:
as §1, §2, §3

Like-named read-outs stand apart in the source and are kept apart here.

By Kd is commonly meant the equilibrium constant for the complex coming apart.

Era, sequence (Q2FGF6 whole entry): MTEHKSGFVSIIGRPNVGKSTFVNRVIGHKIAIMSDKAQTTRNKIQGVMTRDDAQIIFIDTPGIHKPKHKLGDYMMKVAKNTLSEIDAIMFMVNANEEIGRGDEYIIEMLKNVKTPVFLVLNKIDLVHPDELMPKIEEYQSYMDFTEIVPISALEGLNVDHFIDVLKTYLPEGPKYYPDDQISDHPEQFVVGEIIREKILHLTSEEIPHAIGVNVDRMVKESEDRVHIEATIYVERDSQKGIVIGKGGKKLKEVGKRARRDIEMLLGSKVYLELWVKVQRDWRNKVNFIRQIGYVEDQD
HflX, sequence (Q2FYY9 entry or part of it): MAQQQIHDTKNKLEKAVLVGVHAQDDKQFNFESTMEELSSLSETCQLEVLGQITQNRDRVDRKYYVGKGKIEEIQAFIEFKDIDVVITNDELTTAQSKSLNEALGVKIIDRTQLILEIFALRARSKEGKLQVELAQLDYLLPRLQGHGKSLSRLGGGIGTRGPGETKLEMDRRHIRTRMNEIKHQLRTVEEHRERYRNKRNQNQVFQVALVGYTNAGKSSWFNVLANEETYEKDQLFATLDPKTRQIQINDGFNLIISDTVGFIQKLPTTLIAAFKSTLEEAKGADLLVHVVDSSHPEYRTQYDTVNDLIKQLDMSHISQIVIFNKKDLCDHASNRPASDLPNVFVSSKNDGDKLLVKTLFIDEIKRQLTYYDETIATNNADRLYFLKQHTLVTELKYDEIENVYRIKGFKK
RsgA, sequence (P67682 whole entry, the tested form may be a part): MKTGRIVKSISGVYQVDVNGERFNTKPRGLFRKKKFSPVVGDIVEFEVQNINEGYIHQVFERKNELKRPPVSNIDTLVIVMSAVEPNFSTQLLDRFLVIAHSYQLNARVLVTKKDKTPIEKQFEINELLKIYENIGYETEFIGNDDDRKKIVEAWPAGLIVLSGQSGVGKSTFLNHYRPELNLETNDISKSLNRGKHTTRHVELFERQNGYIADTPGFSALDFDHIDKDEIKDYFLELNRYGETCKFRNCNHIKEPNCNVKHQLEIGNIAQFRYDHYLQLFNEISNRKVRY

Take `Nc1nc2c(ncn2[C@@H]2O[C@H](COP(=O)(O)OP(=O)(O)OP(=O)(O)O)[C@@H](OP(=O)(O)OP(=O)(O)O)[C@H]2O)c(=O)[nH]1` [pppGpp]: the Kd at RsgA came out at 10.1 ± 2.2 µM; at Era it was 13.9 ± 4.7 µM. In addition, the “Bmax, RsgA” value on RsgA (mean ± SEM) was determined as 0.4 ± 0.0. Besides, in experiment [1], the “reduction in ribosome binding of HflX” value is reported as 2 fold. In addition, at HflX, the “Bmax, HflX” value is 0.5 ± 0.2. For the same molecule, on Era (mean ± SEM), the “Bmax, Era” value was determined as 0.2 ± 0.0.
As for `Nc1nc2c(ncn2[C@@H]2O[C@H](COP(=O)(O)OP(=O)(O)O)[C@@H](OP(=O)(O)OP(=O)(O)O)[C@H]2O)c(=O)[nH]1` [ppGpp], the Kd was 2.2 ± 0.2 µM on RsgA (mean ± SEM, 32P-labeled nucleotide, 6×His-tagged protein, read-out: Kd, RsgA); 3.4 ± 0.4 µM on HflX (32P-labeled nucleotide, 6×His-tagged protein, read-out: Kd, HflX); 4.2 ± 0.6 µM on Era (mean ± SEM, 32P-labeled nucleotide, 6×His-tagged protein, read-out: Kd, Era). The “Bmax, RsgA” value at RsgA (mean ± SEM) is on record as 0.9 ± 0.0. For the same molecule, in experiment [1], the “reduction in ribosome binding of HflX” value came out at 2 fold. In addition, the “Bmax, HflX” value at HflX was found to be 0.6 ± 0.0. In addition, the “Bmax, Era” value at Era (mean ± SEM) was 0.4 ± 0.0.
